The numbers were not newly measured in patent US20080317862A1, “Organic Compounds Comprising a Glycopyrrolium Salt” (priority 2005, published 2008), which cites them from elsewhere.

Each structure is given as a SMILES string.

The conditions of the series: aerosol formulation for treating asthma, single administration of a metered dose.

Regarding `C[N+]1(C)CCC(OC(=O)C(O)(c2ccccc2)C2CCCC2)C1.[Br-]` (racemic) [glycopyrrolate, 3-[(cyclopentyl-hydroxyphenylacetyl)oxy]-1,1-dimethylpyrrolidinium bromide], the duration of bronchodilation result is “up to 12 hours”.
